Several values for one entry are separate records, joined by “and”; a condition that tells them apart may be missing. Equal entries are not always repeated.
Experiments:
[1] = target: Fibroblast growth factor receptor 3 (Homo sapiens) (UniProt P22607); settings: Compound concentration 20.0 uM, Protein concentration 2.0 uM, Result type QC Liability
[2] = target: T1, Peregrin (Homo sapiens) (UniProt P55201); settings: Compound concentration 20.0 uM, Protein concentration 2.0 uM, Result type QC Liability
T1 sequence (whole entry): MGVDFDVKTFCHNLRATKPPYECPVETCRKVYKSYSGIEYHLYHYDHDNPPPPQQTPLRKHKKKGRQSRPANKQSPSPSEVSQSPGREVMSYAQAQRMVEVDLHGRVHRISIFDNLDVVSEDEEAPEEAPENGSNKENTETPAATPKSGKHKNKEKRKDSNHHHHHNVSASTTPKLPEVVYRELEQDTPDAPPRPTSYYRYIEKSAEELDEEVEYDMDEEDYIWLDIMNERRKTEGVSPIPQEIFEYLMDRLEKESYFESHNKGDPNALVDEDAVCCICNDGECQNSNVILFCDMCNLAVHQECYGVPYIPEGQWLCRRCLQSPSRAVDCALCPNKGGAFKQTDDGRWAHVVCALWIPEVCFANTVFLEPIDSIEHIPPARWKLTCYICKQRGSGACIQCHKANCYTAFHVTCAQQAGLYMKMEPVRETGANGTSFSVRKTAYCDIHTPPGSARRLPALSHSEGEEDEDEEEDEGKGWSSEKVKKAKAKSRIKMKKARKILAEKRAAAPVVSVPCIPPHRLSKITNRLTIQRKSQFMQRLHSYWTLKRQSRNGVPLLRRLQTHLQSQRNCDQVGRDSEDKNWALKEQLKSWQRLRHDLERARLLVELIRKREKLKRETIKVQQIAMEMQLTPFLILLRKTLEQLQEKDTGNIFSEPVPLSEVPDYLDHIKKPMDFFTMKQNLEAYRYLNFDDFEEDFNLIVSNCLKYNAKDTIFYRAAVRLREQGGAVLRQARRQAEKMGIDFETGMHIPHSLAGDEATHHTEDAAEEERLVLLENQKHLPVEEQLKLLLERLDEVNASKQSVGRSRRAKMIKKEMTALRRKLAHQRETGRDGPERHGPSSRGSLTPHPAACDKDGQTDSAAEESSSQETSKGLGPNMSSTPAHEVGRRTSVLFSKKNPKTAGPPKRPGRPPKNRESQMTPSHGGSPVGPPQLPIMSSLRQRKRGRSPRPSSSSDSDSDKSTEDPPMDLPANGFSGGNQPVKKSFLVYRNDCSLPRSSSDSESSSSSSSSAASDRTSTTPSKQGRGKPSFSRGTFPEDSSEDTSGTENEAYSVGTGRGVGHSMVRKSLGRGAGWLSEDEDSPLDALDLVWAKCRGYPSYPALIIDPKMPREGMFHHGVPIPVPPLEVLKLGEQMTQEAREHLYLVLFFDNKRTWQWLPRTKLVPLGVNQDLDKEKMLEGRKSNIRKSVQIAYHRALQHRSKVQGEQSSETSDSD

Sequence of Fibroblast growth factor receptor 3 (Homo sapiens) (P22607 23-806 limits assumed): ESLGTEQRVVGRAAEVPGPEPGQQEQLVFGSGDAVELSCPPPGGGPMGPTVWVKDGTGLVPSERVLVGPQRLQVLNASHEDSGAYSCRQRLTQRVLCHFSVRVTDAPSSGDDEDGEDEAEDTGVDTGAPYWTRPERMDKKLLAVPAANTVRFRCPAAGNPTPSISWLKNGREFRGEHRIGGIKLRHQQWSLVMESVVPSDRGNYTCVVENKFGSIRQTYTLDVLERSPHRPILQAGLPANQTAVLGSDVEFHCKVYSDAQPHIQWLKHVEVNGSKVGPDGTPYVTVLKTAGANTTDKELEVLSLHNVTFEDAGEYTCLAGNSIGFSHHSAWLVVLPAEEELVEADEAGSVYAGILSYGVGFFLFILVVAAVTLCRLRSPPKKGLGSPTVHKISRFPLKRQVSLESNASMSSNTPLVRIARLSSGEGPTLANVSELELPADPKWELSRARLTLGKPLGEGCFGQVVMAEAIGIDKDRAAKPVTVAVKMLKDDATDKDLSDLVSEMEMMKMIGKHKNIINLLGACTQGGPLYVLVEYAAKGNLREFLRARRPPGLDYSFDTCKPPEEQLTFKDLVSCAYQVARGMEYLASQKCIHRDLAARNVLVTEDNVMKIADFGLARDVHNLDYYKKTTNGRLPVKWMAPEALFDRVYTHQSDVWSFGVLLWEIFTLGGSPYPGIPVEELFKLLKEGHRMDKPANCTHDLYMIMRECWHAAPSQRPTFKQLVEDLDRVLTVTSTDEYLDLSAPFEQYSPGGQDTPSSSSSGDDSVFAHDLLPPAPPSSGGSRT

ΔTm [1]	ΔTm [2]	Compound
1.43 °C	-1.77 °C	CN(C)CCCNc1ccnc(Nc2cccc(Cl)c2)n1
0.88 °C	-2.24 °C	N#Cc1ccc(C#CC[C@@H](C#N)NC(=O)[C@H]2CCCCN2)cc1F
1.19 °C	-3.24 °C	NC(=O)OC[C@H](NC(=O)Cn1nc(-c2ccc(Cl)cc2)n(C[C@H](O)C(F)(F)F)c1=O)c1cccc(C(F)(F)F)c1
2.58 °C	-0.71 °C	Cn1cc(Nc2nccc(N3CC4CCC(C3)N4C(=O)[C@@H]3CC3(F)F)n2)cn1
4.52 °C	-2.4 °C	CN(C(=O)c1ccccc1)c1ccc2c(c1)[nH]/c(=N\C(=O)c1ccc(Br)s1)n2CCC(N)=O
0.98 °C	-0.12 °C	NC(=O)C1CCCc2c1[nH]c1ccc(Cl)cc21 (configuration not stated)
0.54 °C	-4.19 °C	O=C(O)c1ccc(OCCCc2ccc(OCCCCOC3CCCCC3)cc2)c(C(=O)NC2CCCC(C(=O)O)C2)c1 (configuration not stated)
0.61 °C	-1.93 °C	CN(C)C(=O)Cn1cc(-c2nc([C@@](C)(c3ccc(-c4cnc(N)nc4)cc3)C3CC3)no2)cn1
2.52 °C	-1.21 °C	Cc1cc(C2CCCNC2)ccc1Nc1ncc(Br)c(NCc2cccc3c2C(C)(C)C(=O)N3)n1 (configuration not stated)
0.12 °C	-1.78 °C	CCCc1c(OCCCOc2ccc(OCC(=O)O)cc2)ccc(C(C)=O)c1O
1.28 °C	-2.62 °C	Cc1cc(OC2CCS(=O)(=O)CC2)cc(C)c1-c1cccc(COc2ccc(C(=O)O)c(F)c2)c1
0.47 °C	-2.13 °C	CN(C)C(=O)Cn1cc(-c2ccc(-c3nnc4ccccn34)cc2)cn1
0.65 °C	-1.01 °C	CN(C)CCCN1c2ccccc2Sc2ccc(Cl)cc21
0.83 °C	-3.42 °C	CCOC(=O)c1cc2cc(-c3cc(C(=O)NCc4ccc(C(=O)O)cc4)nn3C)ccc2[nH]1
3.77 °C	-1.66 °C	Cn1cc(-c2cnc3ccc4ccc(CS(=O)(=O)NCc5ccccn5)cc4c(=O)c3c2)cn1
3.22 °C	-1.47 °C	CCN1CCN(Cc2ccc(C(=O)Nc3ccc(C)c(Oc4ccc5c(c4)CC(=O)N5)c3)cc2C(F)(F)F)CC1
0.43 °C	-2.91 °C	O=C(O)Cc1ccc(CCNS(=O)(=O)c2ccc(Cl)cc2)cc1
0.55 °C	1.16 °C	CC[C@@H]1C(=O)N(C)c2cnc(Nc3ccc(C(=O)NC4CCN(C)CC4)cc3OC)nc2N1C1CCCC1
0.5 °C	-1.11 °C	CNC(=O)c1cccc(-c2ccc3c(N4CCOC[C@@H]4C)nc(N4CCOC[C@@H]4C)nc3n2)c1
0.98 °C	-1.31 °C	N#CN1CC[C@@H](C(=O)Nc2nc3c(s2)CN(C(=O)CN=[N+]=[N-])CC3)C1

Continued, compound first:

Compound	ΔTm [1]	ΔTm [2]
Cc1c(NC(=O)COc2ccc(Cl)cc2C(=O)c2cc(F)cc(C(F)(F)F)c2)ccc(C(=O)O)c1F	0.45 °C and 3.99 °C	-2.51 °C and -1.17 °C
CC(=O)Nc1nc(CN2CCC[C@H](Cc3cc(C)nc(C)c3)C2)cs1	0.78 °C	-1.25 °C
CSc1ccc(C[C@@H](C)C(=O)O)cc1Nc1nc(N2CC[C@H](N(C)C)C2)cc(C(F)F)c1C#N	0.35 °C	-2.68 °C
Cc1cn(CCN2CCN(c3ccccc3-c3cc(C#N)cc(C(=O)NCCCN4CCCC4)c3)CC2)c2ccccc12	-1.2 °C	0.42 °C
COc1cc2nc(C)nc(N[C@H](C)c3cc(N)cc(C(F)(F)F)c3)c2cc1O[C@H]1CCOC1	0.66 °C	-3.07 °C
COc1cc2nc(C)nc(NC3(c4ccccc4)CC3)c2cc1OC	0.4 °C	-3.11 °C
C[C@]12CC[C@@H]3c4ccc(O)cc4CC[C@H]3[C@@H]1C[C@H]1OC(=O)C[C@]12O	0.36 °C	-1.41 °C
CS(=O)(=O)NCC[C@H](NC(=O)c1cncc2c1cnn2-c1ccc(F)cc1)c1ccnc(S(C)(=O)=O)c1	0.62 °C	-1.91 °C
CS(=O)(=O)NC(=O)CCC/C=C\C[C@H]1C(=O)C[C@@H](O)[C@@H]1/C=C/[C@@H](O)COc1ccccc1	0.49 °C	-1.73 °C
CNC(=O)c1cc(C(=O)N[C@H]2[C@@H]3COC[C@@H]32)cc2c1O[C@@H](CF)[C@@H]2c1ccccc1	0.48 °C	-1.16 °C
Cc1nn(C)c(COc2ccc(N3CCN(S(=O)(=O)N(C)C)CC3)cc2)c1-c1cccc2c(CCCOc3cccc4ccccc34)c(C(=O)O)n(CCN3CCOCC3)c12	0.47 °C	-2.4 °C
NCc1ccc(OCCCc2sc(-c3ccc4c(c3)/C(=N/Nc3nc5ccccc5s3)CCC4)nc2C(=O)O)cc1	0.58 °C	-3.06 °C
CNC(=O)c1c[nH]c2ccc(Nc3nccc(-c4ccccn4)n3)cc12	0.22 °C	-0.15 °C
NS(=O)(=O)c1ccc(Nc2nc(OCC3CCCCC3)c3nc[nH]c3n2)cc1	0.37 °C	1.2 °C
COc1cc2ncnc(Nc3cccc(O)c3)c2cc1OC	2.74 °C	-1.59 °C
CCC(C(=O)Nc1ccc(-c2cc3ccccc3s2)c(C(N)=O)c1)c1nccs1 (configuration not stated)	0.48 °C	-1.09 °C
Cc1nnc2n1-c1sc3c(c1C(c1ccccc1Cl)=NC2)C[C@@H](C(=O)N1CCOCC1)C3	0.58 °C	-1.96 °C
CNC(=O)COc1cc2cc(Nc3nc(N4C[C@H](C)C[C@H](C)C4)ncc3Cl)ccc2n(C)c1=O	0.62 °C	-2.08 °C
COC1(C#Cc2ccc(Cl)c(-c3ncc4c(n3)-c3sc(NC(C)=O)nc3CC4)c2)CCN(C)CC1	0.77 °C	-1.7 °C
O=C(O)c1cc2cc(Cc3cccnc3)ccc2o1	0.96 °C	-2.16 °C
CCS(=O)(=O)c1cc2cc(C[C@@](O)(CC(C)(C)c3ccc(F)cc3C(N)=O)C(F)(F)F)[nH]c2cn1	0.69 °C and 0.88 °C	-2.1 °C and -0.15 °C

Compound	ΔTm [1]	ΔTm [2]
CN1C(=O)[C@@H](NC(=O)c2cc(Cc3ccccc3)on2)COc2ccccc21	-2.65 °C	-1.87 °C
CNCc1ccc(-c2cc(-c3nc(-c4ccc(S(=O)(=O)C(C)C)cc4)cnc3N)on2)cc1	-1.35 °C	-0.8 °C
COc1cc(-c2cc3ncccc3c(O[C@@H](C)[C@H]3CNC(=O)C3)n2)cc(OC)c1OC	0.6 °C	-2.76 °C
N=C(N)NCCC[C@H](NC(=O)CC1(CC(=O)N2CCN(C(c3ccccc3)c3ccccc3)CC2)CCCC1)C(=O)NCc1ccccc1	0.22 °C	-4.91 °C
COc1cc(F)ccc1-c1cc(Nc2cc(CS(C)(=N)=O)ccn2)ncc1F (configuration not stated)	3.5 °C	-1.49 °C
c1ccc(C(OC2CCN(CCCc3nnn[nH]3)CC2)c2ccccc2)cc1	0.52 °C	-2.95 °C
Cc1nnc2n1-c1sc3c(c1C(c1ccccc1Cl)=NC2)C[C@H](C(=O)N1CCOCC1)C3	0.59 °C	-1.51 °C
CN(C(=O)c1cnn2cccnc12)c1cc2c(cc1N1CCOCC1)C(=O)N(C[C@@H](F)C(C)(C)O)C2	1.38 °C	-1.49 °C
CCN(CC)CCO[C@H]1CC[C@@]2(C)C(=CC[C@@H]3[C@@H]2CC[C@]2(C)C(=O)CC[C@@H]32)C1	0.44 °C	-0.77 °C
Cc1c(CN2CCC3(CC2)CN(c2ncnc4sc(CC(F)(F)F)cc24)C3)ccc2c1cc(C#N)n2CC(N)=O	0.67 °C	-1.41 °C
CCS(=O)(=O)Nc1cccc(Oc2cncc(Nc3ccc(I)cc3F)c2C(N)=O)c1	1.17 °C	-2.79 °C
Cc1cc2c(cc(C(=O)N[C@H](CO)c3ccc(S(=O)(=O)CC(=O)O)cc3)n2C)c(Cl)c1Cl	0.16 °C	-3.03 °C
OCC1OC(n2cnc3cc(Cl)c(Cl)cc32)C(O)C1O (configuration not stated)	0.39 °C	-1.16 °C
CCCCC/C=C/C=C1/C(=O)C=C[C@@H]1C/C=C\CCCC(=O)O	0.72 °C	-3.72 °C
N#Cc1ccc(C#CC[C@@H](C#N)NC(=O)[C@@H]2CCCCN2)cc1F	0.43 °C	-2.06 °C
Cc1cc2c(ncn2C2(C)CN(C(=O)c3ccn(CC4CCN([C@H]5C=CCCCC5)CC4)c3)C2)c(N)n1	0.4 °C	-0.47 °C
COc1cc(-c2nn([C@H]3CC[C@H](N4CCN(C(C)=O)CC4)CC3)c3ncnc(N)c23)ccc1NC(=O)c1cc2ccccc2n1C	0.83 °C	-2.71 °C
CC/C(=C(\c1ccccc1)c1ccc(OCCN(C)C)cc1)c1ccccc1	0.3 °C	-3.71 °C
Fc1ccc(-c2nc(-c3c(F)cccc3F)[nH]c2-c2ccncc2)cc1	2.21 °C	0.63 °C
CC(C)(O)CNC(=O)N1C(=O)N(c2cccc(C(F)(F)F)c2)C2=C(C(=O)CC2)[C@H]1c1ccc(C#N)cc1	0.72 °C	-1.94 °C
